Experimental data as given in BindingDB's records for doi:10.1021/jm034206x (Boehringer Ingelheim (Canada), 2003).

Biological target: T1, Replication protein E1 (Human papillomavirus 11, UniProt P04014)
T1 sequence (P04014 whole entry): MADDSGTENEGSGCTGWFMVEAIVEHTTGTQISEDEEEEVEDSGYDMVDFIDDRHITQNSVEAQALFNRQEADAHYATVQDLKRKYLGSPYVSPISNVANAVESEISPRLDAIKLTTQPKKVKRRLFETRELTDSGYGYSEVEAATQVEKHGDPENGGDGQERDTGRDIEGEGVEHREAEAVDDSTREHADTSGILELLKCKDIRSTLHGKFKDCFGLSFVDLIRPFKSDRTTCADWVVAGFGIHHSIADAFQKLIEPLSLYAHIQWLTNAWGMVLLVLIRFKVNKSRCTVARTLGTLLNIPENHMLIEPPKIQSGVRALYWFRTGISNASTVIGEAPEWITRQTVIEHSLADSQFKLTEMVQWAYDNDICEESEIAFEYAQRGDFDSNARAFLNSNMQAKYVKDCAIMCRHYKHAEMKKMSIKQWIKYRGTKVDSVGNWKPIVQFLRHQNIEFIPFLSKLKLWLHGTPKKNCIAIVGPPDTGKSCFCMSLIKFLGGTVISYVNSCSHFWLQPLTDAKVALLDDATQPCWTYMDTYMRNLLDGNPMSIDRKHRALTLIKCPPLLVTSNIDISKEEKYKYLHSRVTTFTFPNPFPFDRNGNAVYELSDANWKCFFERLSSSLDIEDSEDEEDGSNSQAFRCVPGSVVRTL
Experiment: ChEBML_84985
From the text: Ability to inhibit in vitro ATPase activity of human papillomavirus (HPV6) E1 helicase

With `O=C(O)CS(=O)(=O)c1ccc(-c2cccc(C(=O)NCc3cccc4ccccc34)c2)cc1` [{3'-[(Naphthalen-1-ylmethyl)-carbamoyl]-biphenyl-4-sulfonyl}-acetic acid] the IC50 was 4.3 nM.

Biological target: Replication protein E1 (Human papillomavirus type 6)
Experiment: Ability to inhibit in vitro ATPase activity of human papillomavirus (HPV6) E1 helicase

Point of comparison: `CC(C(=O)O)S(=O)(=O)c1ccc(-c2ccccc2)cc1` (centres undefined) [2-(Biphenyl-4-sulfonyl)-propionic acid], IC50 17000 nM. Against it:
- CC(C)(C(=O)O)S(=O)(=O)c1ccc(-c2ccccc2)cc1 [2-(Biphenyl-4-sulfonyl)-2-methyl-propionic acid] — higher, > 80000 nM
- NC(=O)CS(=O)(=O)c1ccc(-c2ccccc2)cc1 [2-(Biphenyl-4-sulfonyl)-acetamide] — higher, > 80000 nM
- CS(=O)(=O)c1ccc(-c2cccc(C(=O)NCc3cccc4ccccc34)c2)cc1 [4'-Methanesulfonyl-biphenyl-3-carboxylic acid (naphthalen-1-ylmethyl)-amide] — higher, > 80000 nM
- CS(=O)(=O)c1ccc(-c2ccccc2)cc1 [4-Methanesulfonyl-biphenyl] — higher, > 80000 nM
- O=C(NCc1cccc2ccccc12)c1cccc(-c2ccc(C(=O)C(F)(F)P(=O)(O)O)cc2)c1 [(1,1-Difluoro-2-{3'-[(naphthalen-1-ylmethyl)-carbamoyl]-biphenyl-4-yl}-2-oxo-ethyl)-phosphonic acid] — 23-fold lower, 740 nM
- COc1cccc(-c2ccc(S(=O)(=O)CC(=O)O)cc2)c1 [(3'-Methoxy-biphenyl-4-sulfonyl)-acetic acid] — 4.2-fold lower, 4000 nM
- O=C(O)CS(=O)(=O)c1ccc(-c2cccc(C(=O)Nc3ccccc3)c2)cc1 [(3'-Phenylcarbamoyl-biphenyl-4-sulfonyl)-acetic acid] — 40-fold lower, 420 nM
- O=C(O)CS(=O)(=O)c1cccc(COc2ccccc2)c1 [(3-Phenoxymethyl-benzenesulfonyl)-acetic acid] — higher, > 80000 nM
- O=C(O)CS(=O)(=O)c1ccc(-c2ccc(C(=O)NCc3ccccc3)cc2)cc1 [(4'-Benzylcarbamoyl-biphenyl-4-sulfonyl)-acetic acid] — 33-fold lower, 510 nM
- O=C(O)CS(=O)(=O)c1ccc(-c2ccc(CC(=O)NCc3ccccc3)cc2)cc1 [(4'-Benzylcarbamoylmethyl-biphenyl-4-sulfonyl)-acetic acid] — 50-fold lower, 340 nM
- O=C(O)CS(=O)(=O)c1ccc(-c2ccc(C(=O)N(Cc3ccccc3)Cc3ccccc3)cc2)cc1 [(4'-Dibenzylcarbamoyl-biphenyl-4-sulfonyl)-acetic acid] — 15-fold lower, 1100 nM
- COc1ccc(-c2ccc(S(=O)(=O)CC(=O)O)cc2)cc1 [(4'-Methoxy-biphenyl-4-sulfonyl)-acetic acid] — 13-fold lower, 1300 nM
- O=C(O)CS(=O)(=O)c1ccc(-c2ccc(C(=O)Nc3ccccc3)cc2)cc1 [(4'-Phenylcarbamoyl-biphenyl-4-sulfonyl)-acetic acid] — 13-fold lower, 1300 nM
- O=C(O)CS(=O)(=O)c1ccc(-c2ccc(CC(=O)Nc3ccccc3)cc2)cc1 [(4'-Phenylcarbamoylmethyl-biphenyl-4-sulfonyl)-acetic acid] — 110-fold lower, 160 nM
- O=C(O)CS(=O)(=O)c1ccc(-c2ccc3c(c2)OCO3)cc1 [(4-Benzo[1,3]dioxol-5-yl-benzenesulfonyl)-acetic acid] — 13-fold lower, 1300 nM
- O=C(O)CS(=O)(=O)c1ccc(-c2cccc3ccccc23)cc1 [(4-Naphthalen-1-yl-benzenesulfonyl)-acetic acid] — 3.1-fold lower, 5400 nM
- O=C(O)CS(=O)(=O)c1ccc(NCCc2ccccc2)cc1 [(4-Phenethylamino-benzenesulfonyl)-acetic acid] — 3.9-fold higher, 67000 nM
- O=C(O)CS(=O)(=O)c1ccc(Sc2ccccc2)cc1 [(4-Phenylsulfanyl-benzenesulfonyl)-acetic acid] — higher, > 80000 nM
- O=C(O)CS(=O)(=O)c1ccc(-c2nccs2)cc1 [(4-Thiazol-2-yl-benzenesulfonyl)-acetic acid] — within 1.5-fold, 20000 nM
- O=C(O)CS(=O)(=O)c1cccc(-c2ccccc2)c1 [(Biphenyl-3-sulfonyl)-acetic acid] — higher, > 80000 nM
- O=C(O)CSc1ccc(-c2ccccc2)cc1 [(Biphenyl-4-sulfanyl)-acetic acid] — higher, > 80000 nM
- O=C(O)C(F)S(=O)(=O)c1ccc(-c2ccccc2)cc1 (centres undefined) [(Biphenyl-4-sulfonyl)-fluoro-acetic acid] — 2.6-fold lower, 6500 nM
- O=S(=O)(O)CS(=O)(=O)c1ccc(-c2ccccc2)cc1 [(Biphenyl-4-sulfonyl)-methanesulfonic acid] — 1.9-fold higher, 32000 nM
- O=C(O)CS(=O)(=O)c1ccc2ccccc2c1 [(Naphthalene-2-sulfonyl)-acetic acid] — 2.4-fold higher, 40000 nM
- C[C@H](NC(=O)c1cccc(-c2ccc(S(=O)(=O)CC(=O)O)cc2)c1)c1ccccc1 [[3'-(1-(S)-phenyl-ethylcarbamoyl)-biphenyl-4-sulfonyl]-acetic acid] — 10-fold lower, 1700 nM
- Cc1cccc(CNC(=O)c2cccc(-c3ccc(S(=O)(=O)CC(=O)O)cc3)c2)c1C [[3'-(2,3-dimethyl-benzylcarbamoyl)-biphenyl-4-sulfonyl]-acetic acid] — 1800-fold lower, 9.2 nM
- Cc1ccccc1CNC(=O)c1cccc(-c2ccc(S(=O)(=O)CC(=O)O)cc2)c1 [[3'-(2-methyl-benzylcarbamoyl)-biphenyl-4-sulfonyl]-acetic acid] — 530-fold lower, 32 nM
- Cc1cccc(CNC(=O)c2cccc(-c3ccc(S(=O)(=O)CC(=O)O)cc3)c2)c1 [[3'-(3-methyl-benzylcarbamoyl)-biphenyl-4-sulfonyl]-acetic acid] — 630-fold lower, 27 nM
- C[C@@H](NC(=O)c1cccc(-c2ccc(S(=O)(=O)CC(=O)O)cc2)c1)c1ccccc1 [[3'-((R)-1-Phenyl-ethylcarbamoyl)-biphenyl-4-sulfonyl]-acetic acid] — 400-fold lower, 43 nM
- O=C(O)CS(=O)(=O)c1ccc(-c2cccc(CC(=O)N[C@H]3CCc4ccccc43)c2)cc1 [[3'-((S)-Indan-1-ylcarbamoylmethyl)-biphenyl-4-sulfonyl]-acetic acid] — 850-fold lower, 20 nM
- O=C(O)CS(=O)(=O)c1ccc(-c2cccc(CC(=O)NCc3ccccc3)c2)cc1 [[3'-(Benzylcarbamoyl-methyl)-biphenyl-4-sulfonyl]-acetic acid] — 57-fold lower, 300 nM
- O=C(O)CS(=O)(=O)c1ccc(-c2cccc(C(=O)N3CCOCC3)c2)cc1 [[3'-(Morpholine-4-carbonyl)-biphenyl-4-sulfonyl]-acetic acid] — within 1.5-fold, 22000 nM
- CN(C(=O)c1ccc(-c2ccc(S(=O)(=O)CC(=O)O)cc2)cc1)c1ccccc1 [[4'-(Methyl-phenyl-carbamoyl)-biphenyl-4-sulfonyl]-acetic acid] — 3.5-fold lower, 4800 nM
- O=C(O)CS(=O)(=O)c1ccc(-c2ccc(C(=O)N3CCCCC3)cc2)cc1 [[4'-(Piperidine-1-carbonyl)-biphenyl-4-sulfonyl]-acetic acid] — 5.2-fold lower, 3300 nM
- Cc1nc(-c2ccc(S(=O)(=O)CC(=O)O)cc2)cs1 [[4-(2-Methyl-thiazol-4-yl)-benzenesulfonyl]-acetic acid] — 1.8-fold higher, 30000 nM
- O=C(O)CS(=O)(=O)c1ccc(-c2cccc(CC(=O)Nc3ccccc3)c2)cc1 [{3'-[(phenylcarbamoyl)-methyl]-biphenyl-4-sulfonyl}-acetic acid] — 150-fold lower, 110 nM
- CC(=O)NCCNC(=O)Cc1ccc(-c2ccc(S(=O)(=O)CC(=O)O)cc2)cc1 [{4'-[(2-Acetylamino-ethylcarbamoyl)-methyl]-biphenyl-4-sulfonyl}-acetic acid] — 8.9-fold lower, 1900 nM
